Results published in ChEMBL document CHEMBL1201862, “PubChem BioAssay data set” (2004).
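Interpolation was linear, between the two tested concentrations surrounding the appropriate level; five concentrations were tested over 48 hours in 96-well plates. The concentration for 50% growth inhibition is given as GI50.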 The source made the active and inactive calls. Rule as the data show it: active = GI50 up to about 1.1 µM and inactive = higher.

What was measured:
Assay in all cases: NCI tumour cell line growth inhibition, 48 h
[1] = tested on: UACC-62
[2] = tested on: RXF 393
[3] = tested on: OVCAR-4
[4] = tested on: SF-539
[5] = tested on: HCT-15
[6] = tested on: ACHN
[7] = tested on: IGROV-1
[8] = tested on: HT-29
[9] = tested on: OVCAR-3
[10] = tested on: CCRF-CEM
[11] = tested on: HOP-92
[12] = tested on: 786-0
[13] = tested on: RPMI-8226
[14] = tested on: M14
[15] = tested on: NCI-H460
[16] = tested on: SNB-75
[17] = tested on: HCC 2998
[18] = tested on: SF-295
[19] = tested on: A498
[20] = tested on: LOX IMVI

Row | Structure (SMILES) | GI50 [1] | GI50 [2] | GI50 [3] | GI50 [4] | GI50 [5] | GI50 [6] | GI50 [7] | GI50 [8] | GI50 [9] | GI50 [10] | GI50 [11] | GI50 [12] | GI50 [13] | GI50 [14] | GI50 [15] | GI50 [16] | GI50 [17] | GI50 [18] | GI50 [19] | GI50 [20]
1 | C/C=C/C1(NS(=O)(=O)c2ccc(C)cc2)CCC(C(C)(C)C)CC1 (stereo not given) | 19 µM (inactive) | 24.3 µM (inactive) | 23 µM (inactive) | 21.4 µM (inactive) | 28.6 µM | 36.2 µM (inactive) | 28.8 µM (inactive) | 18 µM (inactive) | 17.7 µM (inactive) | 19.5 µM (inactive) | 19.7 µM (inactive) | 19 µM (inactive) | 21.6 µM (inactive) | 17.3 µM (inactive) | 21.7 µM (inactive) | 53.6 µM (inactive) | 16.2 µM (inactive) | 26.2 µM (inactive) | 24 µM (inactive) | –
2 | CN[C@@H](C)[C@@H](N)c1ccccc1 | > 100 µM (inactive) | > 100 µM (inactive) | – | > 100 µM (inactive) | > 100 µM | > 100 µM (inactive) | > 100 µM (inactive) | > 100 µM (inactive) | > 100 µM (inactive) | > 100 µM (inactive) | > 100 µM (inactive) | > 100 µM (inactive) | > 100 µM (inactive) | > 100 µM (inactive) | > 100 µM (inactive) | 62.8 µM (inactive) | > 100 µM (inactive) | > 100 µM (inactive) | > 100 µM (inactive) | > 100 µM (inactive)
3 | CC1(C)CN(CC(=O)O)CC(Cc2ccc(OCC(=O)O)cc2)N(CC(=O)O)CC(C)(C)SS1 (stereo not given) | > 100 µM (inactive) | > 100 µM (inactive) | > 100 µM (inactive) | > 100 µM (inactive) | > 100 µM | > 100 µM (inactive) | > 100 µM (inactive) | > 100 µM (inactive) | > 100 µM (inactive) | – | > 100 µM (inactive) | > 100 µM (inactive) | > 100 µM (inactive) | > 100 µM (inactive) | > 100 µM (inactive) | > 100 µM (inactive) | > 100 µM (inactive) | > 100 µM (inactive) | > 100 µM (inactive) | > 100 µM (inactive)
4 | C=C1[C@H](OCC(C)C)[C@@H](OCC(C)C)[C@@H](O)C(C)(C)/C=C/[C@H](C)C(=O)[C@@]2(O)C[C@H](C)[C@H](O)[C@@H]2[C@H]1OCC(C)C | 7.19 µM (inactive) | > 7.5 µM (inactive) | > 7.5 µM (inactive) | 2.83 µM (inactive) | 6.92 µM | > 7.5 µM (inactive) | – | – | > 7.5 µM (inactive) | – | > 7.5 µM (inactive) | 4.49 µM (inactive) | – | 2.14 µM (inactive) | 0.555 µM (active) | 3.02 µM (inactive) | > 7.5 µM (inactive) | 2.51 µM (inactive) | 3.23 µM (inactive) | > 7.5 µM (inactive)
5 | CCCCNS(=O)(=O)c1ccc(-c2ccc3c(c2)-c2ccc(S(=O)(=O)NCCCC)cc2S3(=O)=O)cc1 | 13.2 µM (inactive) | 10.8 µM (inactive) | 2.65 µM (inactive) | 12.1 µM (inactive) | 72.8 µM | 21.6 µM (inactive) | 32.8 µM (inactive) | 19.2 µM (inactive) | 24.9 µM (inactive) | 26.1 µM (inactive) | 19.3 µM (inactive) | 11.6 µM (inactive) | 27.9 µM (inactive) | 17.3 µM (inactive) | 10.4 µM (inactive) | – | > 100 µM (inactive) | 15 µM (inactive) | 11.4 µM (inactive) | 15 µM (inactive)
6 | O=C(CCc1cc(-c2ccccc2)[nH]c(=S)n1)Nc1ccccc1[N+](=O)[O-] | > 100 µM (inactive) | > 100 µM (inactive) | – | > 100 µM (inactive) | > 100 µM | > 100 µM (inactive) | > 100 µM (inactive) | > 100 µM (inactive) | > 100 µM (inactive) | > 100 µM (inactive) | > 100 µM (inactive) | > 100 µM (inactive) | > 100 µM (inactive) | > 100 µM (inactive) | > 100 µM (inactive) | > 100 µM (inactive) | > 100 µM (inactive) | > 100 µM (inactive) | > 100 µM (inactive) | > 100 µM (inactive)
7 | c1ccc2c(OCCSCCCCCCCCCCSCCOc3cccc4ccccc34)cccc2c1 | > 100 µM (inactive) | > 100 µM (inactive) | – | > 100 µM (inactive) | > 100 µM | > 100 µM (inactive) | > 100 µM (inactive) | > 100 µM (inactive) | > 100 µM (inactive) | > 100 µM (inactive) | > 100 µM (inactive) | > 100 µM (inactive) | > 100 µM (inactive) | – | > 100 µM (inactive) | > 100 µM (inactive) | > 100 µM (inactive) | > 100 µM (inactive) | > 100 µM (inactive) | > 100 µM (inactive)
8 | C[Si](C)(C)/C(Br)=C\CCN1C(=O)CCC1=O | > 100 µM (inactive) | > 100 µM (inactive) | > 100 µM (inactive) | > 100 µM (inactive) | > 100 µM | > 100 µM (inactive) | > 100 µM (inactive) | > 100 µM (inactive) | > 100 µM (inactive) | > 100 µM (inactive) | > 100 µM (inactive) | > 100 µM (inactive) | – | > 100 µM (inactive) | > 100 µM (inactive) | > 100 µM (inactive) | > 100 µM (inactive) | > 100 µM (inactive) | > 100 µM (inactive) | > 100 µM (inactive)
9 | O=C(Sc1n[nH]c(=O)[nH]c1=O)c1cccc2nc3ccccc3nc12 | 38.8 µM (inactive) | > 100 µM (inactive) | 76.9 µM (inactive) | 35.6 µM (inactive) | 26.7 µM | 30.2 µM (inactive) | > 100 µM (inactive) | 13.5 µM (inactive) | 50 µM (inactive) | > 100 µM (inactive) | > 100 µM (inactive) | > 100 µM (inactive) | 78.5 µM (inactive) | 23.6 µM (inactive) | 8.63 µM (inactive) | – | 27.9 µM (inactive) | 57 µM (inactive) | > 100 µM (inactive) | 18.5 µM (inactive)
10 | COc1ccc(/C=N/NS(=O)(=O)c2ccc(/C=C3\NC(=O)N(C)C3=O)cc2)cc1 | 98.9 µM (inactive) | 38.6 µM (inactive) | 43.9 µM (inactive) | – | > 100 µM | > 100 µM (inactive) | 43.6 µM (inactive) | > 100 µM (inactive) | 40.6 µM (inactive) | 78.3 µM (inactive) | 58.7 µM (inactive) | > 100 µM (inactive) | > 100 µM (inactive) | > 100 µM (inactive) | 37.5 µM (inactive) | 45.6 µM (inactive) | > 100 µM (inactive) | 55 µM (inactive) | 70.6 µM (inactive) | > 100 µM (inactive)
11 | COc1ccc2cc3n(c2c1)CCc1cc(OC)c(OC)cc1-3 | 71.8 µM (inactive) | > 100 µM (inactive) | 45.9 µM (inactive) | > 100 µM (inactive) | – | > 100 µM (inactive) | > 100 µM (inactive) | > 100 µM (inactive) | – | > 100 µM (inactive) | > 100 µM (inactive) | > 100 µM (inactive) | – | – | > 100 µM (inactive) | – | > 100 µM (inactive) | 51.2 µM (inactive) | 28.4 µM (inactive) | > 100 µM (inactive)
12 | CCc1n[nH]c(=O)n1/N=C/c1ccccc1Cl | 53.6 µM (inactive) | 0.474 µM (active) | > 100 µM (inactive) | > 100 µM (inactive) | > 100 µM | > 100 µM (inactive) | 78.3 µM (inactive) | > 100 µM (inactive) | > 100 µM (inactive) | > 100 µM (inactive) | 74.8 µM (inactive) | > 100 µM (inactive) | > 100 µM (inactive) | > 100 µM (inactive) | > 100 µM (inactive) | – | > 100 µM (inactive) | > 100 µM (inactive) | > 100 µM (inactive) | > 100 µM (inactive)
13 | O=C1c2ccccc2C(=O)c2sc(Nc3ccccc3C(F)(F)F)nc21 | 11.6 µM (inactive) | 20.8 µM (inactive) | – | 19.9 µM (inactive) | 7.29 µM | 16.6 µM (inactive) | 12.5 µM (inactive) | – | 7.33 µM (inactive) | 3.79 µM (inactive) | 10.6 µM (inactive) | 16.4 µM (inactive) | 13 µM (inactive) | 21.7 µM (inactive) | 21.8 µM (inactive) | 15.1 µM (inactive) | 15.5 µM (inactive) | 15.6 µM (inactive) | 15.3 µM (inactive) | 25.1 µM (inactive)
14 | C=C1C(=O)O[C@@H]2O[C@@]3(C)CC[C@H]4[C@H](C)CC[C@@H]1[C@@]24O3 [DEOXYARTEMISITENE] | 13 µM (inactive) | 14.4 µM (inactive) | 15.8 µM (inactive) | 11 µM (inactive) | 10.9 µM | 11.3 µM (inactive) | 3.38 µM (inactive) | 17.8 µM (inactive) | 22.2 µM (inactive) | 3.47 µM (inactive) | 3.49 µM (inactive) | 13.6 µM (inactive) | 6.37 µM (inactive) | 24.9 µM (inactive) | 22.3 µM (inactive) | – | 21.9 µM (inactive) | 27.1 µM (inactive) | 34.6 µM (inactive) | 16.1 µM (inactive)
15 | C/C(=C\Cc1cc(O)ccc1O)CCc1c(C)c(O)c(O)c(C=O)c1C [PANICEIN C] | – | 16.1 µM (inactive) | 26.5 µM (inactive) | 18.4 µM (inactive) | 31.4 µM | 20.3 µM (inactive) | 17.1 µM (inactive) | 29.2 µM (inactive) | 21.2 µM (inactive) | 3.28 µM (inactive) | 15.7 µM (inactive) | 25.6 µM (inactive) | 17.4 µM (inactive) | 25.5 µM (inactive) | 23.8 µM (inactive) | 33.3 µM (inactive) | 47.9 µM (inactive) | 25.4 µM (inactive) | 49.2 µM (inactive) | –
